Converted amounts (≈) assume the structure as drawn. Read-outs that look alike come from different tables or passages of the source.
Legend:
Assay in all cases: In vitro antibacterial activity test (broth microdilution)
Assay type in all cases: cell-based
A. baumannii 46 = system: A. baumannii 46
Summary of the method: (§1)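 MIC90 was determined by CLSI broth microdilution against clinical isolates, as the lowest concentration inhibiting visible growth of 90% of organisms relative to untreated control. Final compound concentrations spanned 0.0626–128 ug/mL with 2.5% (V/V) DMSO.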

A. baumannii 49 = system: A. baumannii 49
Summary of the method: as §1

A. baumannii 52 = system: A. baumannii 52
Summary of the method: as §1

[1] = system: A. calcoaceticus ATCC15473
Summary of the method: as §1

E. cloacae β19 = system: E. cloacae β19
Summary of the method: as §1

E. coli AG100 = system: E. coli AG100
Summary of the method: as §1

E. coli β4 = system: E. coli β4
Summary of the method: as §1

K. pneumoniae 2011E = system: K. pneumoniae 2011E
Summary of the method: as §1

K. pneumoniae β10 = system: K. pneumoniae β10
Summary of the method: as §1

K. pneumoniae β11 = system: K. pneumoniae β11
Summary of the method: as §1

K. pneumoniae β13 = system: K. pneumoniae β13
Summary of the method: as §1

K. pneumoniae β14 = system: K. pneumoniae β14
Summary of the method: as §1

K. pneumoniae β9 = system: K. pneumoniae β9
Summary of the method: as §1

M. catarrhalis 2524 = system: M. catarrhalis 2524
Summary of the method: as §1

P. aeruginosa 1912E = system: P. aeruginosa 1912E
Summary of the method: as §1

P. aeruginosa 37 = system: P. aeruginosa 37
Summary of the method: as §1

P. aeruginosa 40 = system: P. aeruginosa 40
Summary of the method: as §1

P. aeruginosa 43 = system: P. aeruginosa 43
Summary of the method: as §1

P. aeruginosa 6065Y = system: P. aeruginosa 6065Y
Summary of the method: as §1

[2] = Acinetobacter baumannii, 46, A. baumannii 46
[3] = Acinetobacter baumannii, 49, A. baumannii 49
[4] = Acinetobacter calcoaceticus, ATCC15473, A. calcoaceticus ATCC15473
[5] = Pseudomonas aeruginosa, 37, P. aeruginosa 37

SMILES	MIC90 (A. baumannii 46; [2])	MIC90 (A. baumannii 49; [3])	MIC90 (A. baumannii 52; Acinetobacter baumannii, 52)	MIC90 [1, 4]	MIC90 (E. cloacae β19; Enterobacter cloacae)	MIC90 (E. coli AG100; Escherichia coli, AG100)	MIC90 (E. coli β4; Escherichia coli)	MIC90 (K. pneumoniae 2011E; Klebsiella pneumoniae, 2011E)	MIC90 (K. pneumoniae β10; Klebsiella pneumoniae)	MIC90 (K. pneumoniae β11; Klebsiella pneumoniae)	MIC90 (K. pneumoniae β13; Klebsiella pneumoniae)	MIC90 (K. pneumoniae β14; Klebsiella pneumoniae)	MIC90 (K. pneumoniae β9; Klebsiella pneumoniae)	MIC90 (M. catarrhalis 2524; Moraxella catarrhalis, 2524)	MIC90 (P. aeruginosa 1912E; Pseudomonas aeruginosa, 1912E)	MIC90 (P. aeruginosa 37; [5])	MIC90 (P. aeruginosa 40; Pseudomonas aeruginosa, 40)	MIC90 (P. aeruginosa 43; Pseudomonas aeruginosa, 43)	MIC90 (P. aeruginosa 6065Y; Pseudomonas aeruginosa, 6065Y)	also measured
CC(C)(O/N=C(\C(=O)N[C@@H]1C(=O)N2C(C(=O)[O-])=C(C[n+]3cnc(NCCCCN)c(NCCCCN)c3)CSC12)c1csc(N)n1)C(=O)O (stereo partly drawn) [Compound 41]	32 µg/mL (≈ 44.5 µM)	32 µg/mL (≈ 44.5 µM)	32 µg/mL (≈ 44.5 µM)	1 µg/mL (≈ 1.39 µM)	4 µg/mL (≈ 5.56 µM)	1 µg/mL (≈ 1.39 µM)	1 µg/mL (≈ 1.39 µM)	4 µg/mL (≈ 5.56 µM)	2 µg/mL (≈ 2.78 µM)	8 µg/mL (≈ 11.1 µM)	2 µg/mL (≈ 2.78 µM)	2 µg/mL (≈ 2.78 µM)	2 µg/mL (≈ 2.78 µM)	0.125 µg/mL (≈ 0.174 µM)	4 µg/mL (≈ 5.56 µM)	8 µg/mL (≈ 11.1 µM)	4 µg/mL (≈ 5.56 µM)	128 µg/mL (≈ 178 µM)	16 µg/mL (≈ 22.2 µM)	
CC(C)(O/N=C(\C(=O)N[C@@H]1C(=O)N2C(C(=O)[O-])=C(/C=C/C[n+]3cnc(N)c(NC(=O)CN)c3N)CSC12)c1csc(N)n1)C(=O)O (stereo partly drawn) [Compound 43]	32 µg/mL (≈ 47.4 µM)	> 128 µg/mL	> 128 µg/mL	4 µg/mL (≈ 5.92 µM)	0.5 µg/mL (≈ 0.74 µM)	0.25 µg/mL (≈ 0.37 µM)	0.5 µg/mL (≈ 0.74 µM)	0.5 µg/mL (≈ 0.74 µM)	0.5 µg/mL (≈ 0.74 µM)	32 µg/mL (≈ 47.4 µM)	0.5 µg/mL (≈ 0.74 µM)	1 µg/mL (≈ 1.48 µM)	1 µg/mL (≈ 1.48 µM)	< 0.0625 µg/mL	4 µg/mL (≈ 5.92 µM)	32 µg/mL (≈ 47.4 µM)	16 µg/mL (≈ 23.7 µM)	> 128 µg/mL	16 µg/mL (≈ 23.7 µM)	
CC(C)(O/N=C(\C(=O)N[C@@H]1C(=O)N2C(C(=O)[O-])=C(/C=C/C[n+]3cnc(N)c(NCCN)c3N)CSC12)c1csc(N)n1)C(=O)O (stereo partly drawn) [Compound 44]	16 µg/mL (≈ 24.2 µM)	> 128 µg/mL	> 128 µg/mL	1 µg/mL (≈ 1.51 µM)	0.5 µg/mL (≈ 0.756 µM)	0.25 µg/mL (≈ 0.378 µM)	0.5 µg/mL (≈ 0.756 µM)	0.5 µg/mL (≈ 0.756 µM)	0.5 µg/mL (≈ 0.756 µM)	32 µg/mL (≈ 48.4 µM)	1 µg/mL (≈ 1.51 µM)	1 µg/mL (≈ 1.51 µM)	1 µg/mL (≈ 1.51 µM)	< 0.0625 µg/mL	8 µg/mL (≈ 12.1 µM)	16 µg/mL (≈ 24.2 µM)	16 µg/mL (≈ 24.2 µM)	128 µg/mL (≈ 193 µM)	32 µg/mL (≈ 48.4 µM)	
CC(C)(ON=C(C(=O)NC1C(=O)N2C(C(=O)O)=C(C=CC[n+]3cnc(N)c(NC(=O)CCN)c3N)CSC12)c1csc(N)n1)C(=O)O.O=C([O-])C(F)(F)F (stereo not drawn) [Compound 45]																				MIC90 (A. baumannii 46; A. baumannii 46): 16 µg/mL; MIC90 (A. baumannii 49; A. baumannii 49): >128 µg/mL; MIC90 (A. baumannii 52; A. baumannii 52): >128 µg/mL; MIC90 ([1]; A. calcoaceticus ATCC15473): 2 µg/mL; MIC90 (E. cloacae β19): 0.25 µg/mL; MIC90 (E. coli AG100; E. coli AG100): 0.25 µg/mL; MIC90 (E. coli β4): 0.25 µg/mL; MIC90 (K. pneumoniae 2011E; K. pneumoniae 2011E): 0.5 µg/mL; MIC90 (K. pneumoniae β10; K. pneumoniae β10): 0.5 µg/mL; MIC90 (K. pneumoniae β11; K. pneumoniae β11): 16 µg/mL; MIC90 (K. pneumoniae β13; K. pneumoniae β13): 0.5 µg/mL; MIC90 (K. pneumoniae β14): 1 µg/mL; MIC90 (K. pneumoniae β9; K. pneumoniae β9): 0.5 µg/mL; MIC90 (M. catarrhalis 2524; M. catarrhalis 2524): <0.0625 µg/mL; MIC90 (P. aeruginosa 1912E): 4 µg/mL; MIC90 (P. aeruginosa 37; P. aeruginosa 37): 16 µg/mL; MIC90 (P. aeruginosa 40; P. aeruginosa 40): 8 µg/mL; MIC90 (P. aeruginosa 43; P. aeruginosa 43): >128 µg/mL; MIC90 (P. aeruginosa 6065Y): 16 µg/mL
CNCCNc1c[n+](C/C=C/C2=C(C(=O)[O-])N3C(=O)[C@@H](NC(=O)/C(=N\OC(C)(C)C(=O)O)c4csc(N)n4)C3SC2)cnc1N (stereo partly drawn) [Compound 51]	8 µg/mL (≈ 12.1 µM)	> 128 µg/mL	128 µg/mL (≈ 194 µM)	0.5 µg/mL (≈ 0.757 µM)	32 µg/mL (≈ 48.4 µM)	0.125 µg/mL (≈ 0.189 µM)	0.125 µg/mL (≈ 0.189 µM)	0.5 µg/mL (≈ 0.757 µM)	0.25 µg/mL (≈ 0.378 µM)	32 µg/mL (≈ 48.4 µM)	0.5 µg/mL (≈ 0.757 µM)	0.5 µg/mL (≈ 0.757 µM)	0.5 µg/mL (≈ 0.757 µM)	< 0.0625 µg/mL	2 µg/mL (≈ 3.03 µM)	32 µg/mL (≈ 48.4 µM)	4 µg/mL (≈ 6.05 µM)	64 µg/mL (≈ 96.9 µM)	32 µg/mL (≈ 48.4 µM)	
C[C@H](O/N=C(\C(=O)N[C@@H]1C(=O)N2C(C(=O)[O-])=C(/C=C/C[n+]3cnc(N)c(NCCN)c3)CSC12)c1csc(N)n1)C(=O)O (stereo partly drawn) [Compound 52]	1 µg/mL (≈ 1.58 µM)	> 128 µg/mL	> 128 µg/mL	1 µg/mL (≈ 1.58 µM)	8 µg/mL (≈ 12.6 µM)	< 0.0625 µg/mL	< 0.0625 µg/mL	< 0.0625 µg/mL	1 µg/mL (≈ 1.58 µM)	128 µg/mL (≈ 202 µM)	4 µg/mL (≈ 6.32 µM)	8 µg/mL (≈ 12.6 µM)	4 µg/mL (≈ 6.32 µM)	< 0.0625 µg/mL	0.5 µg/mL (≈ 0.79 µM)	16 µg/mL (≈ 25.3 µM)	2 µg/mL (≈ 3.16 µM)	32 µg/mL (≈ 50.6 µM)	4 µg/mL (≈ 6.32 µM)	

— US9630977B2, “Cephalosporin derivatives and pharmaceutical compositions thereof” (Legochem Biosciences, Inc., priority 2011, dated 2017)
